Source: patent US6734171B1, “Methods for encapsulating nucleic acids in lipid bilayers” (Inex Pharmaceuticals Corp., priority 1997, dated 2004)

Experiments:
Unseparated spleen cells = assay: Cell proliferation assay (3H-thymidine) of spleen cells stimulated in vitro; assay type: cell-based, Balb/c mice; settings: spleen cells of Diluent treated mice; label = in vitro stimulation
Experimental: Mice, 12 per group, were injected intravenously (i.v.) with TCS formulations as described below. In this study four injections were given at intervals of seven days over a period of five weeks (Table 4). Group A was injected with INEX324 expressing LacZ reporter gene on day 0, 7 and 14 (150 μl per mouse of INEX324-LacZ, 75 μg DNA). Two weeks after the last LacZ injection, mice were injected with INEX324-Luc (150 μl per injection, 80 μg DNA). To evaluate the immunogenicity of INEX324 lipid, Group B received three injections of INEX324 empty vesicles (150 μl per mouse) and one injection of INEX324-Luc two weeks later. Group C served as a base-line control, mice were given 150 μl of diluent at each time point. Mice from Group D received three diluent injections, followed by a single injection of INEX324-Luc, and served as a positive control for luciferase expression. Three mice from each group were sacrificed at 18 hours after each injection, or 24 hours prior to the following injection. Blood was collected and the serum samples were analyzed for the presence of antibodies specific for β-galactosidase using an ELISA assay. […] Splenocytes were monitored for expression, of differentiation (CD4, CD8, CD22, CD11b) and activation (CD86, MHC-II, Ly-6A/E, CD54 and CD25) markers. […]
Unseparated spleen cells were tested in vitro for their ability to proliferate upon re-stimulation with the empty INEX324 vesicles, INEX324-LacZ formulation, LacZ, transgene product (r-β-galactosidase), or with polyclonal activators for T (Concanavalin A, Con A) and […] (Lipopolysaccharide, LPS). […] An isolated cell suspension was separated from debris by removing the supernatant and the cell number was quantified using a Coulter counter (Coulter Instruments, Miami, Fla.). […] The levels of incorporated radioactivity were measured in a scintillation counter. ^3H-thymidine incorporation is expressed total ^3H-incorporation (DPMs), or as a mean percentage (±SD) of media control and plotted versus lipid concentration values.

Splenocytes = assay: Cytokine release (IL-2, IL-4 ELISA) of splenocytes stimulated in vitro; assay type: cell-based, Balb/c mice; settings: spleen cells of Diluent treated mice; label = in vitro stimulation
Experimental: Splenocytes (1×10^6 cells/ml) were either nonstimulated or cultured in the presence of various concentrations of either empty INEX324 vesicles, or INEX324-LacZ formulation at different times after culture initiation (24 h and 48 h). The levels of cytokine in the cell culture supernatant (Interleukin-2 and Interleukin-4) were determined by an ELISA assasy (below).
Cytokine-specific ELISA assays were performed using the protocol and specific anti-interleukin antibodies provided by reagent mini-kit (Endogen, Woburn MA). Briefly, Immuno-module (F8-maxisorb) 96-well plates were coated overnight with anti-IL-2, or anti-IL-4 antibody. Plates were washed with PBS-Tween 20 (0.05%) and blocked with PBS-Tween 20-BSA (2%) for 1 hour at room temperature. Supernatant samples and standards (diluted in blocking buffer) were added and allowed to incubate overnight. Plates were washed and biotinylated anti-IL-2 or anti-IL-4 antibody was added. After 2 hours incubation, plates were washed and HRP-Extravidin, followed by TMB, was added to each well. Plates were read on a plate reader at OD450nm. The amount of released cytokine was determined by comparing the O.D. of test supernatants to a standard curve of serially diluted cytokine standards.

Row | Substance | 3H-incorporation (Unseparated spleen cells) | Cytokine release IL-2 (Splenocytes) | Cytokine release IL-4 (Splenocytes)
1 | r-β-gal: transgene product (r-β-galactosidase) | 18336 DPMs | 0.059 OD450 | 0.103 OD450
2 | Concanavalin A [ConA] | 215542 DPMs | 0.615 OD450 | 0.138 OD450
3 | Lipopolysaccharide [LPS] | 35676 DPMs |  | 
